The results in this text go back to US7022691B2, “Inhibitors of serine and metallo-β-lactamases” (priority 2002, dated 2006).

For assay [1], the system named is class B β-lactamases. The assay can be described thus: Inhibition of class B β-lactamases, summary in words. The class given is biochemical. The conditions noted are these: summary of Table 1 in words. The method, then: (§1) Representative compounds of the invention were evaluated as inhibitors of two serine β-lactamases: Enterobacter cloacae P99 (class C), TEM-1 (class A), as well as two class B enzymes: the L1 metallo-β-lactamse derived from Stenotrophomonas maltophilia) and the metallo-β-lactamase derived from the Bacillus cereus microorganism. The IC50 value of each compound was determined as follows. Assay method involves 4 min incubation of a solution of inhibitor and enzyme (0.1 to 1 μM in enzyme), followed by transfer of an aliquot into a dilute solution of the substrate nitrocefin. Hydrolysis is monitored spectrophotometrically at 480 nm for 1 min. The rate is constant throughout this period. Error is ±10%, based on multiple experiments.

The target of assay [2] is BC1 metallo-β-lactamase (class B) (Bacillus cereus, UniProt P04190). Put plainly: biochemical. As to the method: as §1
In assay [3] the target is L1 metallo-β-lactamase (class B) (Stenotrophomonas maltophilia, UniProt P52700). The assay can be described thus: Inhibition of L1 metallo-β-lactamase (nitrocefin hydrolysis). Type of assay: biochemical. The method, then:
as §1

In assay [4] the target is Enterobacter cloacae P99 (class C) serine β-lactamase (Enterobacter cloacae, UniProt P05364). Put plainly: biochemical. As to the method:
as §1, with “min.” for “min. The rate is constant throughout this period. Error is ±10%, based on multiple experiments.”

For assay [5], the target named is TEM-1 (class A) serine β-lactamase (Escherichia coli, UniProt P62593). The assay can be described thus: Inhibition of TEM-1 β-lactamase (nitrocefin hydrolysis). The class given is biochemical. As to conditions: 4 min incubation of inhibitor and enzyme (0.1 to 1 μM), substrate nitrocefin, 480 nm; error ±10%. As to the method:
as §1, with “min.” for “min. The rate is constant throughout this period. Error is ±10%, based on multiple experiments.”

Assay [6] concerns serine and metallo-β-lactamases. Put plainly: Inhibition of serine and metallo-β-lactamases, summary in words. Type of assay: biochemical. The conditions noted are these: summary of Table 1 in words. As to the method: as §1, with “min.” for “min. The rate is constant throughout this period. Error is ±10%, based on multiple experiments.”
Setting [7] is: 4 min incubation of inhibitor and enzyme (0.1 to 1 μM), substrate nitrocefin, 480 nm, error ±10%, read-out: Inhibition IC50, P99 (Class C) (Serine).
[8] abbreviates: read-out: Inhibition IC50, BC1 (Class B) (Metallo), 4 min incubation of inhibitor and enzyme (0.1 to 1 μM), substrate nitrocefin, 480 nm, error ±10%.
The mark [9] stands for this setting: 4 min incubation of inhibitor and enzyme (0.1 to 1 μM), substrate nitrocefin, 480 nm, error ±10%, read-out: Inhibition IC50, L1 (Class B) (Metallo).
Where [10] appears, read: Inhibition IC50, P99 (Class C) (Serine), 4 min incubation of inhibitor and enzyme (0.1 to 1 μM), substrate nitrocefin, 480 nm, error ±10%.

Structures can show the parent of a compound that is named as a salt. Where two headings read alike, the source gives them in different places. Bounds are passed on as bounds.

Sequence of BC1 metallo-β-lactamase (class B) (P04190 31-257): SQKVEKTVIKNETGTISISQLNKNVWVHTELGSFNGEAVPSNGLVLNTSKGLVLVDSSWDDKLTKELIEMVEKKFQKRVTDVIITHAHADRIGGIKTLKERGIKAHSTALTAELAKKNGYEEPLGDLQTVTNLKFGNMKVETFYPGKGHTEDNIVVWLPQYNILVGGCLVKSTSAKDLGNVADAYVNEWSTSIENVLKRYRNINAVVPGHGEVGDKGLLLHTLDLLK
Sequence of Enterobacter cloacae P99 (class C) serine β-lactamase (P05364 21-381): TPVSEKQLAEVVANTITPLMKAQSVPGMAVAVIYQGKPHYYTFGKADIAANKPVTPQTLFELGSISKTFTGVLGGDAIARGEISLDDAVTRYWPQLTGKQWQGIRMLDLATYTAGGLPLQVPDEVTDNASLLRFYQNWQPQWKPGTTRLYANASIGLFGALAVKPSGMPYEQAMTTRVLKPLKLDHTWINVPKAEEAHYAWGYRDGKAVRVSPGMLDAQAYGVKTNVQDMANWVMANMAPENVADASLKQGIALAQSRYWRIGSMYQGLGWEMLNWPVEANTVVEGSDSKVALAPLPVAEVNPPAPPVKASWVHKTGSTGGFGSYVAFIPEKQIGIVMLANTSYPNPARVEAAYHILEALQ
Sequence of TEM-1 (class A) serine β-lactamase (P62593 24-286 limits assumed): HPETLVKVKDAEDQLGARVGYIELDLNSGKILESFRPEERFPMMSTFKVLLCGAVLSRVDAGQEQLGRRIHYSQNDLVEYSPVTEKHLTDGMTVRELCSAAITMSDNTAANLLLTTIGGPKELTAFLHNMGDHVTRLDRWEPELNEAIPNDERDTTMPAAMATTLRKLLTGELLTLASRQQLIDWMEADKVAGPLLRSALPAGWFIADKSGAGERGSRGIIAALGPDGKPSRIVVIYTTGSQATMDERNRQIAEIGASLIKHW
Sequence of L1 metallo-β-lactamase (class B) (P52700 34-290): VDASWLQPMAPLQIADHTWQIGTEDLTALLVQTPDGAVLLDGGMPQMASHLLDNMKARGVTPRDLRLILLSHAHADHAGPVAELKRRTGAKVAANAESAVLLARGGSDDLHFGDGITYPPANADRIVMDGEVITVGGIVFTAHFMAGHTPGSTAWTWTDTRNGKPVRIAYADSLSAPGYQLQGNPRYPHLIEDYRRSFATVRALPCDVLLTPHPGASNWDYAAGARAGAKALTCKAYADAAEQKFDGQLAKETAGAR

As to `CC1(C)[C@H](C(=O)O)N2C(=O)C(CO)C2S1(=O)=O` (single isomer, unassigned) [Compound 15, Sodium Salt of 6β-(hydroxymethyl)penicillinate-1,1-dioxide, reference compound], in assay [1], the “ability to inhibit the class B β-lactamases” value is “none of the latter, previously known, 6-(hydroxymethyl)penicillinates possess such ability”. Further, the values for the IC50 in assay [2], in assay [3] and in assay [4] (setting [7]) were above 2000 µM, above 2000 µM and 3.9 µM, respectively.
As to `CC1(C)S[C@@H]2C(CO)C(=O)N2[C@H]1C(=O)O` (single isomer, unassigned) [Compound 16, Sodium Salt of 6β-(hydroxymethyl)penicillinate, reference compound], in assay [1], the “ability to inhibit the class B β-lactamases” value is recorded as “none of the latter, previously known, 6-(hydroxymethyl)penicillinates possess such ability”. Also, the half-inhibitory concentration (IC50) in assay [2] (setting [8]) was above 2000 µM; in assay [3] (setting [9]) it was above 2000 µM; in assay [5], 752 µM; in assay [4] (setting [10]) it was 409 µM.
For the molecule `CC1(C)[C@H](C(=O)O)N2C(=O)C(CO)C2S1(=O)=O` (single isomer, unassigned) [Compound 27, Sodium Salt of 6α-(hydroxymethyl)penicillinate-1,1-dioxide, reference compound], the “ability to inhibit the class B β-lactamases” value in assay [1] was “none of the latter, previously known, 6-(hydroxymethyl)penicillinates possess such ability”. The IC50 was above 2000 µM in assay [2] (setting [8]); above 2000 µM in assay [3] (read-out: Inhibition IC50, L1 (Class B) (Metallo), 4 min incubation of inhibitor and enzyme (0.1 to 1 μM), substrate nitrocefin, 480 nm, error ±10%); 10 µM in assay [4] (setting [7]).
For the molecule `CC1(C)S[C@@H]2C(CO)C(=O)N2[C@H]1C(=O)O` (single isomer, unassigned) [Compound 28, Sodium Salt of 6α-(hydroxymethyl)penicillinate, reference compound], the “ability to inhibit the class B β-lactamases” value in assay [1] is listed as “none of the latter, previously known, 6-(hydroxymethyl)penicillinates possess such ability”. For the same molecule, the half-maximal inhibitory concentration (IC50) was above 2000 µM in assay [2], above 2000 µM in assay [3], 275 µM in assay [5] and 96.2 µM in assay [4] (setting [10]).
As for `CC1(C)S[C@@H]2C(CS)C(=O)N2[C@H]1C(=O)[O-].[Na+]` (stereo partly drawn) [Compound 9, Sodium Salt of 6β-(mercaptomethyl)penicillanic acid], in assay [1], the “ability to inhibit the class B β-lactamases” value is listed as “possess the ability to inhibit the class B β-lactamases”. In addition, the IC50 was determined as 12.3 µM in assay [2], 72.2 µM in assay [3] (setting [9]), 601 µM in assay [5] and 0.1 µM in assay [4] (setting [7]).
As to `CC1(C)[C@H](C(=O)[O-])N2C(=O)[C@@H](CS)[C@H]2S1(=O)=O.[Na+]` [Compound 13, Sodium Salt of 6β-(mercaptomethyl)penicallin acid 1,1-dioxide], the “ability to inhibit the class B β-lactamases” value in assay [1] is on record as “possess the ability to inhibit the class B β-lactamases”. Moreover, the IC50 is 64 µM in assay [2], 0.13 µM in assay [3] (setting [9]), 6.8 µM in assay [5] and 10.5 µM in assay [4] (setting [10]). Besides, in assay [6], the “broad spectrum inhibitory activity” value was “excellent broad spectrum inhibitory activity”.
For the molecule `CC1(C)S[C@@H]2[C@@H](CS)C(=O)N2[C@H]1C(=O)[O-].[Na+]` [Compound 21, Sodium Salt of 6α-(mercaptomethyl)penicillinate], the “ability to inhibit the class B β-lactamases” value in assay [1] is listed as “possess the ability to inhibit the class B β-lactamases”. The IC50 in assay [2] was found to be 7.6 µM; in assay [3] (setting [9]), 81.4 µM; in assay [5] it was 648 µM; in assay [4] (setting [7]), 3.75 µM.
On to `CC1(C)[C@H](C(=O)[O-])N2C(=O)[C@H](CS)[C@H]2S1(=O)=O.[Na+]` [Compound 25, Sodium Salt of 6α-(mercaptomethyl)penicallin acid 1,1-dioxide], for which the “ability to inhibit the class B β-lactamases” value in assay [1] is recorded as “possess the ability to inhibit the class B β-lactamases”. In addition, the IC50 in assay [2] worked out at 770 µM; in assay [3] (setting [9]), 0.82 µM; in assay [5] it was 51.7 µM; in assay [4] it was 7.5 µM.
For the molecule `C[C@]1(Cn2ccnn2)[C@H](C(=O)O)N2C(=O)C[C@H]2S1(=O)=O` [Tazobactam], the IC50 in assay [2] and in assay [3] (setting [9]) was above 2000 µM each time.

For orientation: IC50 means the concentration that gives 50% inhibition.
